Reference: the supplement of paper PMC10307832

Key:
Assay in all cases: relative viability (nuclei count vs DMSO), 5 days (fraction); higher = more cells survive
CAL-12T = test system: CAL-12T
In short: (§1)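 Lung cancer cell lines were pin-tool dosed in 1536-well plates on the day after seeding, with either a lone drug or a fixed anchor-drug dose plus five library-drug doses (not always all listed) in √10 steps. Nuclei were counted on 4× images after 5 days. Relative viability is the ratio of treated-well to vehicle-well nuclei counts, with each value a median of duplicate plates.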

COR-L 105 = test system: COR-L 105
In short: as §1

H3255 = test system: H3255
In short: as §1

HARA = test system: HARA
In short: as §1

HCC-15 = test system: HCC-15
In short: as §1

HCC-366 = test system: HCC-366
In short: as §1

LC-2-ad = test system: LC-2-ad
In short: as §1

LU99A = test system: LU99A
In short: as §1

NCI-H1395 = test system: NCI-H1395
In short: as §1

NCI-H1666 = test system: NCI-H1666
In short: as §1

NCI-H1734 = test system: NCI-H1734
In short: as §1

NCI-H1944 = test system: NCI-H1944
In short: as §1

NCI-H1975 = test system: NCI-H1975
In short: as §1

NCI-H1993 = test system: NCI-H1993
In short: as §1

NCI-H2228 = test system: NCI-H2228
In short: as §1

NCI-H3122 = test system: NCI-H3122
In short: as §1

NCI-H520 = test system: NCI-H520
In short: as §1

NCI-H647 = test system: NCI-H647
In short: as §1

NCI-H661 = test system: NCI-H661
In short: as §1

NCI-H838 = test system: NCI-H838
In short: as §1

PC-14 = test system: PC-14
In short: as §1

PC-3 [JPC-3] = test system: PC-3 [JPC-3]
In short: as §1

SK-LU-1 = test system: SK-LU-1
In short: as §1

## O=c1[nH]c2ccccc2n1C1CCN(CCCC(c2ccc(F)cc2)c2ccc(F)cc2)CC1 [Pimozide] + Cc1nc(Nc2ncc(C(=O)Nc3c(C)cccc3Cl)s2)cc(N2CCN(CCO)CC2)n1 [Dasatinib] (partner 0.075 µM)
CAL-12T; first compound 0.08 µM
  relative viability: 0.378
CAL-12T; first compound 0.253 µM
  relative viability: 0.404
CAL-12T; first compound 0.8 µM
  relative viability: 0.415
CAL-12T; first compound 2.53 µM
  relative viability: 0.333
CAL-12T; first compound 8 µM
  relative viability: 0.259
COR-L 105; first compound 0.253 µM
  relative viability: 0.427
COR-L 105; first compound 0.8 µM
  relative viability: 0.411
COR-L 105; first compound 2.53 µM
  relative viability: 0.293
COR-L 105; first compound 8 µM
  relative viability: 0.301
H3255; first compound 0.253 µM
  relative viability: 0.355
H3255; first compound 0.8 µM
  relative viability: 0.51
H3255; first compound 2.53 µM
  relative viability: 0.446
H3255; first compound 8 µM
  relative viability: 0.323
HARA; first compound 0.253 µM
  relative viability: 0.262
HARA; first compound 0.8 µM
  relative viability: 0.275
HARA; first compound 2.53 µM
  relative viability: 0.247
HARA; first compound 8 µM
  relative viability: 0.304
HCC-15; first compound 0.08 µM
  relative viability: 0.651
HCC-15; first compound 0.253 µM
  relative viability: 0.577
HCC-15; first compound 0.8 µM
  relative viability: 0.551
HCC-15; first compound 2.53 µM
  relative viability: 0.565
HCC-15; first compound 8 µM
  relative viability: 0.495
HCC-366; first compound 0.08 µM
  relative viability: 0.613
HCC-366; first compound 0.253 µM
  relative viability: 0.644
HCC-366; first compound 0.8 µM
  relative viability: 0.625
HCC-366; first compound 2.53 µM
  relative viability: 0.615
HCC-366; first compound 8 µM
  relative viability: 0.714
LC-2-ad; first compound 0.08 µM
  relative viability: 0.571
LC-2-ad; first compound 0.253 µM
  relative viability: 0.518
LC-2-ad; first compound 0.8 µM
  relative viability: 0.447
LC-2-ad; first compound 2.53 µM
  relative viability: 0.548
LC-2-ad; first compound 8 µM
  relative viability: 0.493
LU99A; first compound 0.08 µM
  relative viability: 0.539
LU99A; first compound 0.253 µM
  relative viability: 0.527
LU99A; first compound 0.8 µM
  relative viability: 0.531
LU99A; first compound 2.53 µM
  relative viability: 0.459
LU99A; first compound 8 µM
  relative viability: 0.459
NCI-H1395; first compound 0.08 µM
  relative viability: 0.388
NCI-H1395; first compound 0.253 µM
  relative viability: 0.382
NCI-H1395; first compound 0.8 µM
  relative viability: 0.355
NCI-H1395; first compound 2.53 µM
  relative viability: 0.403
NCI-H1395; first compound 8 µM
  relative viability: 0.361
NCI-H1666; first compound 0.08 µM
  relative viability: 0.752
NCI-H1666; first compound 0.253 µM
  relative viability: 0.814
NCI-H1666; first compound 0.8 µM
  relative viability: 0.82
NCI-H1666; first compound 2.53 µM
  relative viability: 0.708
NCI-H1666; first compound 8 µM
  relative viability: 0.684
NCI-H1734; first compound 0.08 µM
  relative viability: 0.495
NCI-H1734; first compound 0.253 µM
  relative viability: 0.454
NCI-H1734; first compound 2.53 µM
  relative viability: 0.529
NCI-H1734; first compound 8 µM
  relative viability: 0.493
NCI-H1944; first compound 0.08 µM
  relative viability: 0.212
NCI-H1944; first compound 0.253 µM
  relative viability: 0.203
NCI-H1944; first compound 0.8 µM
  relative viability: 0.183
NCI-H1944; first compound 2.53 µM
  relative viability: 0.225
NCI-H1944; first compound 8 µM
  relative viability: 0.197
NCI-H1975; first compound 0.08 µM
  relative viability: 0.415
NCI-H1975; first compound 0.253 µM
  relative viability: 0.342
NCI-H1975; first compound 0.8 µM
  relative viability: 0.345
NCI-H1975; first compound 2.53 µM
  relative viability: 0.346
NCI-H1975; first compound 8 µM
  relative viability: 0.294
NCI-H1993; first compound 0.08 µM
  relative viability: 0.649
NCI-H1993; first compound 0.253 µM
  relative viability: 0.597
NCI-H1993; first compound 0.8 µM
  relative viability: 0.464
NCI-H1993; first compound 2.53 µM
  relative viability: 0.664
NCI-H1993; first compound 8 µM
  relative viability: 0.332
NCI-H2228; first compound 0.08 µM
  relative viability: 0.524
NCI-H2228; first compound 0.253 µM
  relative viability: 0.604
NCI-H2228; first compound 0.8 µM
  relative viability: 0.448
NCI-H2228; first compound 2.53 µM
  relative viability: 0.345
NCI-H2228; first compound 8 µM
  relative viability: 0.315
NCI-H3122; first compound 0.08 µM
  relative viability: 0.885
NCI-H3122; first compound 0.253 µM
  relative viability: 0.861
NCI-H3122; first compound 0.8 µM
  relative viability: 0.385
NCI-H3122; first compound 2.53 µM
  relative viability: 0.851
NCI-H3122; first compound 8 µM
  relative viability: 0.688
NCI-H520; first compound 0.08 µM
  relative viability: 0.216
NCI-H520; first compound 0.253 µM
  relative viability: 0.184
NCI-H520; first compound 0.8 µM
  relative viability: 0.185
NCI-H520; first compound 2.53 µM
  relative viability: 0.176
NCI-H520; first compound 8 µM
  relative viability: 0.225
NCI-H647; first compound 0.08 µM
  relative viability: 0.41
NCI-H647; first compound 0.253 µM
  relative viability: 0.233
NCI-H647; first compound 0.8 µM
  relative viability: 0.198
NCI-H647; first compound 2.53 µM
  relative viability: 0.179
NCI-H647; first compound 8 µM
  relative viability: 0.162
NCI-H661; first compound 0.08 µM
  relative viability: 0.782
NCI-H661; first compound 0.253 µM
  relative viability: 0.828
NCI-H661; first compound 0.8 µM
  relative viability: 0.826
NCI-H661; first compound 2.53 µM
  relative viability: 0.725
NCI-H661; first compound 8 µM
  relative viability: 0.611
NCI-H838; first compound 0.08 µM
  relative viability: 0.266
NCI-H838; first compound 0.253 µM
  relative viability: 0.282
NCI-H838; first compound 0.8 µM
  relative viability: 0.225
NCI-H838; first compound 2.53 µM
  relative viability: 0.302
NCI-H838; first compound 8 µM
  relative viability: 0.279
PC-14; first compound 0.08 µM
  relative viability: 0.027
PC-14; first compound 0.253 µM
  relative viability: 0.241
PC-14; first compound 0.8 µM
  relative viability: 0.272
PC-14; first compound 2.53 µM
  relative viability: 0.306
PC-14; first compound 8 µM
  relative viability: 0.18
PC-3 [JPC-3]; first compound 0.08 µM
  relative viability: 0.529
PC-3 [JPC-3]; first compound 0.253 µM
  relative viability: 0.912
PC-3 [JPC-3]; first compound 0.8 µM
  relative viability: 0.867
PC-3 [JPC-3]; first compound 2.53 µM
  relative viability: 0.892
PC-3 [JPC-3]; first compound 8 µM
  relative viability: 0.897
SK-LU-1; first compound 0.08 µM
  relative viability: 0.2
SK-LU-1; first compound 0.253 µM
  relative viability: 0.21
SK-LU-1; first compound 0.8 µM
  relative viability: 0.184
SK-LU-1; first compound 2.53 µM
  relative viability: 0.186
SK-LU-1; first compound 8 µM
  relative viability: 0.168
